The record followed here is patent publication US11434242B2, “Dopamine-b-hydroxylase inhibitors” (BIAL-PORTELA & Cª, S.A., priority 2017, dated 2022).

The target of the experiment is T1, Dopamine beta hydroxylase (Homo sapiens, UniProt P09172).
T1 construct: 125 μl of plasma; tissue Instituto Português do Sangue Transplantação; host or cells: human plasma from healthy donors
T1 sequence (P09172 40-617 limits assumed): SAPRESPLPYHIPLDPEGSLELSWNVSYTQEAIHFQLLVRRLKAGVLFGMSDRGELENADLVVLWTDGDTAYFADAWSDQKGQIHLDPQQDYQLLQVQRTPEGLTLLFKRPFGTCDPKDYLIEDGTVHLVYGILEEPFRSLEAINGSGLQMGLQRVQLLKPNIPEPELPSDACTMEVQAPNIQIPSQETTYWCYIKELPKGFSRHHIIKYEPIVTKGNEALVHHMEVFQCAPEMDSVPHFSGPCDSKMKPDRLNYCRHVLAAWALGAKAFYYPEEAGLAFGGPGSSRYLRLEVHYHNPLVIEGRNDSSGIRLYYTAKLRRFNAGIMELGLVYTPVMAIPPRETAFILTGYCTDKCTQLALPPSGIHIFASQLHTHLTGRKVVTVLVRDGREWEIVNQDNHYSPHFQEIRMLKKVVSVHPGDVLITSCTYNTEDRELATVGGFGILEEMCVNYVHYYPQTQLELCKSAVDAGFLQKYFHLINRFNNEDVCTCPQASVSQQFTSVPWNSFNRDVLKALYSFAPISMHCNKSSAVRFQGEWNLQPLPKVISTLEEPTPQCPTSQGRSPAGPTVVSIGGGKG
Description: Dopamine beta hydroxylase activity in human plasma. The class given is biochemical. The conditions noted are these: for Plasma (0.01 μM), activity in % of control: inhibitor 0.01 μM; for Plasma (0.1 μM), activity in % of control: inhibitor 0.1 μM; for Plasma (1 μM), activity in % of control: inhibitor 1 μM. The essentials: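 Healthy-donor human plasma pre-incubated 10 min at 37° C with compound at final 10, 100 or 1000 nM in pH 5.0 acetate buffer with ascorbate, fumarate, pargyline, N-ethylmaleimide, catalase and copper sulfate. Tyramine substrate then added for 45 min; octopamine formed was isolated by SCX cartridge, periodate-converted and read at 330 nm; activity given as % control.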

For the compound `[2H]C([2H])([2H])n1c(CC(=O)NC2CCOCC2)c2n(c1=S)C[C@@]1(c3cc(Br)ccc3F)C[C@@H]21` [Example 463, 2-((5aS,6aR)-5a-(5-bromo-2-fluorophenyl)-2-(methyl-d)-3-thioxo-2,3,5,5a,6,6a-hexahydrocyclopropa[3,4]pyrrolo[1,2-c]imidazol-1-yl)-N-(tetrahydro-2H-pyran-4-yl)acetamide], the “Plasma (0.01 μM), activity in % of control” value is listed as 29.1 % of control and the “Plasma (0.1 μM), activity in % of control” value was 3.7 % of control.

For `CS(=O)(=O)CCNCCc1[nH]c(=S)n2c1C[C@H](c1c(F)ccc(Br)c1F)C2` [Example 182, (R)-6-(3-bromo-2,6-difluorophenyl)-1-(2-((2-(methylsulfonyl)ethyl)amino)ethyl)-2,5,6,7-tetrahydro-3H-pyrrolo[1,2-c]imidazole-3-thione], the “Plasma (0.01 μM), activity in % of control” value is 94.6 % of control and the “Plasma (0.1 μM), activity in % of control” value is 71.0 % of control.

Take `Cn1c(CC(N)=O)c2n(c1=S)C[C@H](c1c(F)ccc(Br)c1F)C2` [Example 240, (S)-2-(6-(3-bromo-2,6-difluorophenyl)-2-methyl-3-thioxo-2,5,6,7-tetrahydro-3H-pyrrolo[1,2-c]imidazol-1-yl)acetamide]: the “Plasma (0.01 μM), activity in % of control” value was 76.1 % of control and the “Plasma (0.1 μM), activity in % of control” value is recorded as 39.2 % of control.

Regarding `O=C(Cc1[nH]c(=S)n2c1C[C@H](c1c(F)ccc(F)c1F)C2)N[C@@H]1CCCOC1` [Example 365, N—((R)-tetrahydro-2H-pyran-3-yl)-2-((R)-3-thioxo-6-(2,3,6-trifluorophenyl)-2,5,6,7-tetrahydro-3H-pyrrolo[1,2-c]imidazol-1-yl)acetamide], the “Plasma (0.01 μM), activity in % of control” value was 101.3 % of control and the “Plasma (0.1 μM), activity in % of control” value was 56.9 % of control.

Take `CC(C)NCCCc1[nH]c(=S)n2c1C[C@H](c1c(F)ccc(F)c1F)C2` [Example 472, (R)-1-(3-(isopropylamino)propyl)-6-(2,3,6-trifluorophenyl)-2,5,6,7-tetrahydro-3H-pyrrolo[1,2-c]imidazole-3-thione hydrofluoride]: the “Plasma (0.01 μM), activity in % of control” value was 63.3 % of control and the “Plasma (0.1 μM), activity in % of control” value is 14.2 % of control.

Regarding `O=C(Cc1[nH]c(=S)n2c1C[C@H](c1c(F)c(F)cc(F)c1F)C2)N1CCC2(CC1)OCCO2` [Example 87, (R)-1-(1,4-dioxa-8-azaspiro[4.5]decan-8-yl)-2-(6-(2,3,5,6-tetrafluorophenyl)-3-thioxo-2,5,6,7-tetrahydro-3H-pyrrolo[1,2-c]imidazol-1-yl)ethan-1-one], the “Plasma (0.1 μM), activity in % of control” value is reported as 62.8 % of control and the “Plasma (1 μM), activity in % of control” value was 13.8 % of control.

As to `CCOC(=O)Cc1[nH]c(=S)n2c1C[C@H](c1cc(Cl)ccc1F)C2` [Example 64, Ethyl (R)-2-(6-(5-chloro-2-fluorophenyl)-3-thioxo-2,5,6,7-tetrahydro-3H-pyrrolo[1,2-c]imidazol-1-yl)acetate], the “Plasma (0.1 μM), activity in % of control” value was 88.4 % of control and the “Plasma (1 μM), activity in % of control” value is on record as 47.2 % of control.

Consider `Cn1c(CC(=O)N2CCNCC2)c2n(c1=S)C[C@@]1(c3cc(Cl)ccc3F)C[C@@H]21` [Example 320, 2-((5aS,6aR)-5a-(5-chloro-2-fluorophenyl)-2-methyl-3-thioxo-2,3,5,5a,6,6a-hexahydrocyclopropa[3,4]pyrrolo[1,2-c]imidazol-1-yl)-1-(piperazin-1-yl)ethan-1-one], for which the “Plasma (0.01 μM), activity in % of control” value is 90.3 % of control and the “Plasma (0.1 μM), activity in % of control” value is 31.1 % of control.

As for `COC[C@@H]1CCCN1C(=O)Cc1c2n(c(=S)n1C)C[C@@H](c1c(F)c(F)cc(F)c1F)C2` [Example 283, 1-((S)-2-(methoxymethyl)pyrrolidin-1-yl)-2-((R)-2-methyl-6-(2,3,5,6-tetrafluorophenyl)-3-thioxo-2,5,6,7-tetrahydro-3H-pyrrolo[1,2-c]imidazol-1-yl)ethan-1-one], the “Plasma (0.01 μM), activity in % of control” value was 96.0 % of control and the “Plasma (0.1 μM), activity in % of control” value was 72.9 % of control.

For the compound `CN(C(=O)Cc1[nH]c(=S)n2c1C[C@@H](c1c(F)ccc(Cl)c1F)C2)C1CCOC1` (stereo partly drawn) [Example 384, 2-((S)-6-(3-chloro-2,6-difluorophenyl)-3-thioxo-2,5,6,7-tetrahydro-3H-pyrrolo[1,2-c]imidazol-1-yl)-N-methyl-N-(tetrahydrofuran-3-yl)acetamide], the “Plasma (0.01 μM), activity in % of control” value is listed as 104.5 % of control and the “Plasma (0.1 μM), activity in % of control” value is given as 43.4 % of control.

`O=C(Cc1[nH]c(=S)n2c1C[C@H](c1c(F)c(F)cc(F)c1F)C2)NC1CCC1` [Example 80, (R)—N-cyclobutyl-2-(6-(2,3,5,6-tetrafluorophenyl)-3-thioxo-2,5,6,7-tetrahydro-3H-pyrrolo[1,2-c]imidazol-1-yl)acetamide]: the “Plasma (0.1 μM), activity in % of control” value is 60.7 % of control and the “Plasma (1 μM), activity in % of control” value is 9.8 % of control.

On to `O=C(Cc1[nH]c(=S)n2c1[C@@H]1C[C@]1(c1cc(Br)ccc1F)C2)N[C@@H]1CCOC1` [Example 307, 2-((5aS,6aR)-5a-(5-bromo-2-fluorophenyl)-3-thioxo-2,3,5,5a,6,6a-hexahydrocyclopropa[3,4]pyrrolo[1,2-c]imidazol-1-yl)-N—((R)-tetrahydrofuran-3-yl)acetamide], for which the “Plasma (0.01 μM), activity in % of control” value is 73.9 % of control and the “Plasma (0.1 μM), activity in % of control” value is given as 33.0 % of control.

For the compound `Cn1c(CC(=O)N2CCOCC2)c2n(c1=S)C[C@H](c1c(F)ccc(Cl)c1F)C2` [Example 329, (S)-2-(6-(3-chloro-2,6-difluorophenyl)-2-methyl-3-thioxo-2,5,6,7-tetrahydro-3H-pyrrolo[1,2-c]imidazol-1-yl)-1-morpholinoethan-1-one], the “Plasma (0.01 μM), activity in % of control” value is given as 41.7 % of control and the “Plasma (0.1 μM), activity in % of control” value is given as 16.1 % of control.

Consider `Cn1c(CC(=O)NC2CCOCC2)c2n(c1=S)C[C@@]1(c3cc(Cl)ccc3F)C[C@@H]21` [Example 313, 2-((5aS,6aR)-5a-(5-chloro-2-fluorophenyl)-2-methyl-3-thioxo-2,3,5,5a,6,6a-hexahydrocyclopropa[3,4]pyrrolo[1,2-c]imidazol-1-yl)-N-(tetrahydro-2H-pyran-4-yl)acetamide], for which the “Plasma (0.01 μM), activity in % of control” value is 37.6 % of control and the “Plasma (0.1 μM), activity in % of control” value is listed as 9.6 % of control.

In the case of `O=C(Cc1[nH]c(=S)n2c1C[C@@H](c1c(F)ccc(Cl)c1F)C2)Nc1ccccn1` [Example 169, (S)-2-(6-(3-chloro-2,6-difluorophenyl)-3-thioxo-2,5,6,7-tetrahydro-3H-pyrrolo[1,2-c]imidazol-1-yl)-N-(pyridin-2-yl)acetamide], the “Plasma (0.01 μM), activity in % of control” value is on record as 59.3 % of control and the “Plasma (0.1 μM), activity in % of control” value is 17.1 % of control.

`Cn1c(CC(=O)O)c2n(c1=S)C[C@H](c1cc(Cl)ccc1F)C2` [Example 230, (S)-2-(6-(5-chloro-2-fluorophenyl)-2-methyl-3-thioxo-2,5,6,7-tetrahydro-3H-pyrrolo[1,2-c]imidazol-1-yl)acetic acid]: the “Plasma (0.01 μM), activity in % of control” value is 82.0 % of control and the “Plasma (0.1 μM), activity in % of control” value is 41.6 % of control.

With `O=C(O)Cc1[nH]c(=S)n2c1C[C@H](c1c(F)cccc1F)C2` [Example 18, (R)-2-(6-(2,6-difluorophenyl)-3-thioxo-2,5,6,7-tetrahydro-3H-pyrrolo[1,2-c]imidazol-1-yl)acetic Acid], the “Plasma (0.1 μM), activity in % of control” value is 81.0 % of control and the “Plasma (1 μM), activity in % of control” value is given as 19.8 % of control.

On to `Cn1c(C2(C(=O)NCCS(C)(=O)=O)CC2)c2n(c1=S)C[C@H](c1c(F)ccc(Br)c1F)C2` [Example 238, (S)-1-(6-(3-bromo-2,6-difluorophenyl)-2-methyl-3-thioxo-2,5,6,7-tetrahydro-3H-pyrrolo[1,2-c]imidazol-1-yl)-N-(2-(methylsulfonyl)ethyl)cyclopropane-1-carboxamide], for which the “Plasma (0.01 μM), activity in % of control” value is 93.4 % of control and the “Plasma (0.1 μM), activity in % of control” value is on record as 88.5 % of control.

On to `CS(=O)(=O)C1CCN(C(=O)Cc2[nH]c(=S)n3c2C[C@H](c2c(F)ccc(Br)c2F)C3)C1` (stereo partly drawn) [Example 135, 2-((R)-6-(3-bromo-2,6-difluorophenyl)-3-thioxo-2,5,6,7-tetrahydro-3H-pyrrolo[1,2-c]imidazol-1-yl)-1-(3-(methylsulfonyl)pyrrolidin-1-yl)ethan-1-one], for which the “Plasma (0.01 μM), activity in % of control” value is reported as 88.3 % of control and the “Plasma (0.1 μM), activity in % of control” value is recorded as 58.1 % of control.

Consider `Cn1ccnc1CCc1[nH]c(=S)n2c1C[C@H](c1c(F)c(F)cc(F)c1F)C2` [Example 217, (R)-1-(2-(1-methyl-1H-imidazol-2-yl)ethyl)-6-(2,3,5,6-tetrafluorophenyl)-2,5,6,7-tetrahydro-3H-pyrrolo[1,2-c]imidazole-3-thione], for which the “Plasma (0.01 μM), activity in % of control” value was 99.8 % of control and the “Plasma (0.1 μM), activity in % of control” value was 92.3 % of control.
